Laboratory results: patent publication US10851097B2, “4,5,6,7-tetrahydro-1H-imidazo[4,5-c]pyridine and 1,4,5,6,7,8-hexahydroimidazo[4,5-d]azepine derivatives as janus kinase inhibitors” (Topivert Pharma Limited, priority 2015, dated 2020)
Values after ≈ are worked out from the molar mass of the structure shown.

Assays:
JAK1 = molecular target: T1, JAK1 (Homo sapiens, UniProt P23458); assay: KINOMEscan enzyme binding assay (DiscoveRx), JAK1; conditions: read-out: Dissociation Constant JAK1
T1 construct: purchased DiscoveRx (LeadHunter Discover Services, KINOMEscan)
Description: (§1) These assays may be conducted by DiscoveRx (formerly Ambit; San Diego, Calif.). The percentage inhibition produced by incubation with a test compound may be calculated relative to the non-inhibited control.

JAK2 = molecular target: T2, JAK2 (Homo sapiens, UniProt O60674); assay: KINOMEscan enzyme binding assay (DiscoveRx), JAK2; conditions: read-out: Dissociation Constant JAK2
T2 construct: purchased DiscoveRx (LeadHunter Discover Services, KINOMEscan)
Description: as §1

JAK3 = molecular target: T3, JAK3 (Homo sapiens, UniProt P52333); assay: KINOMEscan enzyme binding assay (DiscoveRx), JAK3; conditions: read-out: Dissociation Constant JAK3
T3 construct: purchased DiscoveRx (LeadHunter Discover Services, KINOMEscan)
Description: as §1

TYK2 = molecular target: T4, TYK2 (Homo sapiens, UniProt P29597); assay: KINOMEscan enzyme binding assay (DiscoveRx), TYK2; conditions: read-out: Dissociation Constant TYK2
T4 construct: purchased DiscoveRx (LeadHunter Discover Services, KINOMEscan)
T4 sequence (P29597 888-1187 limits assumed): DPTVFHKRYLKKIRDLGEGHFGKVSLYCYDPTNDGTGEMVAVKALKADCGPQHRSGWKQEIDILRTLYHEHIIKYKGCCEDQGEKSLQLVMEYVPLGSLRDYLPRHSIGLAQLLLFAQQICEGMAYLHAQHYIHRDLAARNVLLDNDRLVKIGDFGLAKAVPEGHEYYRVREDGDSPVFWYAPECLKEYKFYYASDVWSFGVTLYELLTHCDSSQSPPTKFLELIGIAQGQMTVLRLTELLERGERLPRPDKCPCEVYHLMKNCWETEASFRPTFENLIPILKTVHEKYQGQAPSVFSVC
Description: as §1

[1] = system: CD3/IL2 stimulated PBMC cells; assay: IFNγ release from CD3/IL2 stimulated PBMC cells (assay (a)); assay type: cell-based; conditions: Homo sapiens, CD3/IL2 stimulation, 48 h, ELISA
Jurkat cells = assay: Cell cytotoxicity assay in Jurkat cells (assay (c)); assay type: cell-based, human; conditions: 24 h, propidium iodide, normalised to DMSO control
Description: (c) Cell Cytotoxicity Assay
1×10^5 Jurkat cells (immortalised human T lymphocytes) are added to the appropriate number of wells of a 96 well plate in 100 μL of media (RPMI supplemented with 10% foetal bovine serum). 1 μL of DMSO control (final concentration 1.0% v/v) or test compound (final concentration 20, 5 or 1 μg/mL) is added to the wells and incubated at 37° C., 5% CO2. After 24 hours, the plate is centrifuged at 1200 rpm for 3 minutes and the supernatant discarded. Cells are then resuspended in 150 μL (final concentration 7.5 μg/mL) of propidium iodide (PI) in PBS and incubated at 37° C., 5% CO2 for 15 minutes. After 15 minutes, cells are analysed by flow cytometry (BD accuri) using the FL3 window. The % viability is calculated as the % of cells that are PI negative in the test wells normalised to the DMSO control.

[2] = Solubility in fasted-state simulated colonic fluid (FaSSCoF) at pH 6.5; assay type: physicochemical; conditions: 25 °C, pH 6.5, fassgf or other biorelevant, thermodynamic from solid, pH 6.5, 25° C., Run 1, read-out: pH 6.5 FaSSCoF Solubility Run 1
Description: The solubilities of compounds of the invention in FaSSCoF at pH 6.5 are determined using a modification of a previously-reported procedure (Vertzoni, M., et al. Pharm. Res. 2010, 27, 2187-2196). In place of the bile salt extract employed in the original procedure (which extract is no longer available), the modified procedure uses a mixture of sodium taurochlorate (0.15 g), glycocholic acid (0.15 g), ursodeoxycholic acid (0.05 g), cholic acid (0.05 g), and glycodeoxycholic acid (0.05 g). These five bile acids are ground together with a mortar and pestle to produce a fine white powder that is incorporated into the FaSSCoF, as outlined below.
Tris(hydroxymethyl)aminomethane (Tris; 0.275 g) and maleic acid (0.44 g) are dissolved in water (35 mL) to give a solution whose pH is adjusted to 6.5 by treatment with 0.5M NaOH (ca. 12 mL). The solution is then made up to 50 mL with water. A portion of this Tris/maleate buffer solution (ca. 25 mL) is added to a 0.5 L round-bottomed flask, before being treated with 0.00565 g of the bile acid mixture described above. Solutions of phosphatidylcholine (0.0111 g) in DCM (0.15 mL) and palmitic acid (0.0013 g) in DCM (0.15 mL) are added, then the organic solvent is evaporated off under reduced pressure at 40° C. until a clear solution, with no perceptible DCM odour, is achieved. The volume of the evaporated solution is adjusted to 50 mL by addition of the remainder of Tris/maleate buffer, then BSA (0.115 g) is added, before being dissolved by gentle agitation.
Test compounds are suspended in the pH 6.5 FaSSCoF medium to give a maximum final concentration of 2-10 mg/mL. The suspensions are equilibrated at 25° C. for 24 h, before being filtered through a glass fibre C filter. The filtrates are then diluted as appropriate for injection and quantification by HPLC with reference to a standard. Different volumes of the standard, diluted and undiluted sample solutions are injected and the solubilities are calculated using the peak areas determined by integration of the peak found at the same retention time as the principal peak in the standard injection.

T2 sequence (O60674 840-1132 limits assumed): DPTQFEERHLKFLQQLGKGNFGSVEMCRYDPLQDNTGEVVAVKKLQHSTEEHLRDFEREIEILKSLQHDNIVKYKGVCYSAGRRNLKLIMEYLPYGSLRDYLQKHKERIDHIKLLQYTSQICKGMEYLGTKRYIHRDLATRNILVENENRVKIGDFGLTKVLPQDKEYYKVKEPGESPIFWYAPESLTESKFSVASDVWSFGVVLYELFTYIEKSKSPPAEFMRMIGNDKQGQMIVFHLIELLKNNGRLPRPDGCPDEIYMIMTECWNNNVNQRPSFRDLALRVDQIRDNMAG
T1 sequence (P23458 866-1154 limits assumed): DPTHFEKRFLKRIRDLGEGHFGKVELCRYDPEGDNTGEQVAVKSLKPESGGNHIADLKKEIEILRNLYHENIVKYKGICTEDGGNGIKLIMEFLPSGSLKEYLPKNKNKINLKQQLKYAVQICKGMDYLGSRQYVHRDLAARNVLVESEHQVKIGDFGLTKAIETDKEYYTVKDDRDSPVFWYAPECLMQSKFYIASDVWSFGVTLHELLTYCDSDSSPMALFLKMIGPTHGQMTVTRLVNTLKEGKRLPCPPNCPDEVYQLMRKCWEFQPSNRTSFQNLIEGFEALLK
T3 sequence (P52333 813-1124 limits assumed): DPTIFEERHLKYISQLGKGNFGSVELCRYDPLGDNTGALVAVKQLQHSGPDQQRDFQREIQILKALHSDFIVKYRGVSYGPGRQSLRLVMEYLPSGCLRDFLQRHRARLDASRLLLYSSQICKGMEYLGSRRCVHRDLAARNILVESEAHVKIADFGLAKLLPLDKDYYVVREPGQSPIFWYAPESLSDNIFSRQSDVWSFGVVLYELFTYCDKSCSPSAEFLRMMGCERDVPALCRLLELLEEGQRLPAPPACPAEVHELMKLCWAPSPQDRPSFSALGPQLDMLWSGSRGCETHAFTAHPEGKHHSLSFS

- Kd (JAK1): 1 nM
- Kd (JAK2): 0.047 nM
- Kd (JAK3): 0.092 nM
- Kd (TYK2): 0.13 nM
- solubility thermodynamic at 24 h [2]: 10 µg/mL (≈ 16 µM)
SMILES: CCc1cc(O)c(F)cc1-c1ccc2c(-c3nc4c([nH]3)CCN(C(=O)c3cnc(N(C)CCN5CCCC5=O)cn3)C4)n[nH]c2c1 [Example 2(k), 1-(2-((5-(2-(6-(2-ethyl-5-fluoro-4-hydroxyphenyl)-1H-indazol-3-yl)-4,5,6,7-tetrahydro-1H-imidazo[4,5-c]pyridine-5-carbonyl)pyrazin-2-yl)(methyl)amino)ethyl)pyrrolidin-2-one]
- IC50 [1]: 9.9 nM
- % viability at 1 μg/mL (Jurkat cells): 93%
